SMILES strings stand for the structures. Some results are limits rather than exact numbers.

The values below come from patent publication US9981940B2, “Aryl sulfide derivatives and aryl sulfoxide derivatives as acaricides and insecticides” (BAYER CROPSCIENCE AKTIENGESELLSCHAFT, priority 2013, dated 2018).

The nature of series [1]: log P by HPLC (OECD Guideline 117), method [b] neutral range. The format is physicochemical. The conditions noted are these: HPLC; for logP[b]: method [b] neutral range; for chromatographic logP: reversed-phase C18 HPLC column, neutral range, pH 7.8. The method, then:
(§1) The log P values were determined analogously to OECD Guideline 117 (EC Directive 92/69/EEC) by HPLC (high-performance liquid chromatography) using reversed-phase columns (C 18), by the following methods:
[b] The LC-MS determination in the neutral range is effected at pH 7.8 with 0.001 molar aqueous ammonium hydrogencarbonate solution and acetonitrile as eluents; linear gradient from 10% acetonitrile to 95% acetonitrile.

Series [2] can be described thus: log P by HPLC (OECD Guideline 117), method [a] acidic range. In kind it is physicochemical. To be noted: for logP[a]: HPLC, method [a] acidic range. The method, then: as §1
[a] The LC-MS determination in the acidic range is effected at pH 2.7 with 0.1% aqueous formic acid and acetonitrile (contains 0.1% formic acid) as eluents; linear gradient from 10% acetonitrile to 95% acetonitrile.

Setting [3] is: reversed-phase C18 HPLC column, pH 2.7, HPLC, acidic range, pH 2.7, read-out: log P[a].
The mark [4] stands for this setting: reversed-phase C18 HPLC column, pH 2.7, HPLC method [a], acidic range, read-out: logP[a].

On to `N#Cc1cc(F)c(-n2nc(C(F)(F)F)oc2=O)cc1SCC(F)(F)F` [Example 308], for which the “logP[b]” value in series [1] is reported as 3.40. Moreover, the “logP[a]” value in series [2] is recorded as 3.47.
For `Cc1ccc(-n2nc(OC(C)C)n(C)c2=O)cc1[S+]([O-])CC(F)(F)F` (centres unmarked) [Example 163], in series [1], the “logP[b]” value was determined as 2.80. In addition, the “logP[a]” value in series [2] came out at 2.87.
For `CC(C)n1c(Br)n[nH]c1=O` [5-Bromo-4-isopropyl-2,4-dihydro-3H-1,2,4-triazol-3-one], the chromatographic logP in series [1] was 0.83; in series [2] (setting [3]) it was 0.86.
In the case of `O=c1n(-c2cc(SCC(F)(F)F)c(Cl)cc2F)nc(OCC(F)(F)F)n1C1CC1` [Example 186], the “logP[b]” value in series [1] is recorded as 3.89. The “logP[a]” value in series [2] came out at 3.96.
`Cc1cc(F)c(-n2nc(C(=O)O)n(C(C)C)c2=O)cc1SCC(F)(F)F` [1-{2-Fluoro-4-methyl-5-[(2,2,2-trifluoroethyl)sulphanyl]phenyl}-4-isopropyl-5-oxo-4,5-dihydro-1H-1,2,4-triazole-3-carboxylic acid]: in series [2] (setting [3]), the chromatographic logP was found to be 2.16.
As to `COC1=CC(=O)N(c2cc(SCC(F)(F)F)c(C)cc2Cl)C1` [Example 319], the “logP[b]” value in series [1] was 2.98. The “logP[a]” value in series [2] is listed as 3.02.
The matching figures for `CCc1nn(-c2cc([S+]([O-])CC(F)(F)F)c(C)cc2F)c(=O)n1-c1cccnc1` (racemic) [Example 354]: 1.97 and 1.98.
Turning to `Cc1cc(F)c(-n2nc(OC3CCOC3)n(C)c2=O)cc1[S+]([O-])CC(F)(F)F` (centres unmarked) [Example 161], the “logP[b]” value in series [1] is recorded as 1.84. Also, in series [2], the “logP[a]” value is reported as 1.89.
Consider `Cc1ccc(SSc2cc(Br)ccc2C)cc1Br` [4-Bromo-2-[(3-bromo-4-methylphenyl)disulphanyl]-1-methylbenzene], for which the chromatographic logP in series [1] and in series [2] (setting [3]) was over 7.36 in each case.
Regarding `N#Cc1cc(F)c(-n2nc(C(F)(F)F)n(C3CC3)c2=O)cc1[S+]([O-])CC(F)(F)F` (centres unmarked) [Example 47, 4-[4-Cyclopropyl-5-oxo-3-(trifluoromethyl)-4,5-dihydro-1H-1,2,4-triazol-1-yl]-5-fluoro-2-[(2,2,2-trifluoroethyl)sulphinyl]benzonitrile], the chromatographic logP in series [1] came out at 2.84; in series [2] (setting [4]) it was 2.92; in series [2] (setting [3]), 2.92.
On to `CC=Cc1nn(-c2cc(SCC(F)(F)F)c(C)cc2F)c(=O)n1C1CC1` [Example 81], for which, in series [1], the “logP[b]” value turned out to be 3.49. For the same compound, in series [2], the “logP[a]” value turned out to be 3.55.
`N#Cc1cc(F)c(Br)cc1SCC(F)(F)F` [VIIa-18, 4-Bromo-5-fluoro-2-[(2,2,2-trifluoroethyl)sulphanyl]benzonitrile]: the chromatographic logP in series [1] turned out to be 3.26; in series [2] (setting [3]) it was 3.32.
As to `Cc1cc(F)c(-n2nnn(-c3ccc(C(F)(F)F)cc3)c2=O)cc1[S+]([O-])CC(F)(F)F` (racemic) [Example 445], the “logP[b]” value in series [1] worked out at 3.72. Besides, in series [2], the “logP[a]” value amounted to 3.75.
The like results for `CCCOC1=CC(=O)N(c2cc([S+]([O-])CC(F)(F)F)c(C)cc2F)C1` (centres unmarked) [Example 333] were, in that order, 2.52 and 2.57.
As for `Cc1ccc(-n2nc(OCC(C)C)n(C)c2=O)cc1[S+]([O-])CC(F)(F)F` (centres unmarked) [Example 167], the “logP[b]” value in series [1] is 3.26. Besides, the “logP[a]” value in series [2] worked out at 3.31.
The matching figures for `Cc1cc(C)c(-n2ncn(Cc3ccccc3)c2=O)cc1SCC(F)(F)F` [Example 373]: 3.47 and 3.55.
For the compound `Cc1cc(F)c(-n2nc(Br)n(Cc3ccccc3)c2=O)cc1[S+]([O-])CC(F)(F)F` (centres unmarked) [Example 443], in series [1], the “logP[b]” value was 3.00. In addition, the “logP[a]” value in series [2] was found to be 3.08.
As to `Cc1cc(F)c(-n2nn[nH]c2=O)cc1SCC(F)(F)F` [Example 299, 1-{2-Fluoro-4-methyl-5-[(2,2,2-trifluoroethyl)sulphanyl]phenyl}-1,4-dihydro-5H-tetrazol-5-one], the values for the chromatographic logP in series [1], in series [2] (setting [4]) and in series [2] (setting [3]) were 0.9, 2.45 and 2.45, respectively.
Take `COc1nn(-c2ccc(C(F)(F)F)c([S+]([O-])CC(F)(F)F)c2)c(=O)n1C` (centres unmarked) [Example 96, 5-Methoxy-4-methyl-2-{3-[(2,2,2-trifluoroethyl)sulphinyl]-4-(trifluoromethyl)phenyl}-2,4-dihydro-3H-1,2,4-triazol-3-one]: the chromatographic logP was found to be 2.83 in series [1], 2.89 in series [2] (setting [4]) and 2.89 in series [2] (setting [3]).
Consider `Nc1cc(SCC(F)(F)F)c(Br)cc1F` [IVa-14, 4-Bromo-2-fluoro-5-[(2,2,2-trifluoroethyl)sulphanyl]aniline], for which the results for the chromatographic logP in series [1] and in series [2] (setting [3]) were 3.12 and 3.15, respectively.
Turning to `COC(=O)c1nn(-c2cc(SSc3cc(-n4nc(C(=O)OC)n(C(C)C)c4=O)c(F)cc3C)c(C)cc2F)c(=O)n1C(C)C` [XXVIII-1, Dimethyl 1,1′-[disulphanediylbis(6-fluoro-4-methylbenzene-3,1-diyl)]bis(4-isopropyl-5-oxo-4,5-dihydro-1H-1,2,4-triazole-3-carboxylate)], in series [2] (setting [3]), the chromatographic logP was found to be 4.11.
Consider `Cc1ccc(-n2nc(OC3CCOC3)n(C)c2=O)cc1SCC(F)(F)F` (centres unmarked) [Example 156], for which the “logP[b]” value in series [1] was 3.27. For the same compound, the “logP[a]” value in series [2] is 3.27.
With `COc1ccc(-n2nc(C(F)(F)F)n(C3CC3)c2=O)cc1[S+]([O-])CC(F)(F)F` (centres unmarked) [Example 53], the “logP[b]” value in series [1] was determined as 2.93. The “logP[a]” value in series [2] is 3.03.
Consider `COc1nn(-c2cc([S+]([O-])CC(F)(F)F)c(Br)cc2F)c(=O)n1C` (centres unmarked) [Example 174], for which the “logP[b]” value in series [1] is listed as 2.15. Moreover, the “logP[a]” value in series [2] turned out to be 2.21.
With `Cc1cc(F)c(NC(=S)NCC(F)(F)F)cc1[S+]([O-])CC(F)(F)F` (centres unmarked) [IIb-1, 1-{2-Fluoro-4-methyl-5-[(2,2,2-trifluoroethyl)sulphinyl]phenyl}-3-(2,2,2-trifluoroethyl)thiourea], the results for the chromatographic logP in series [1] and in series [2] (setting [3]) were 2.3 and 2.34, respectively.
For `COc1nn(-c2ccc(C(F)(F)F)c([S+]([O-])CC(F)(F)F)c2)c(=O)n1C1CC1` (centres unmarked) [Example 147], the “logP[b]” value in series [1] is on record as 3.19. Besides, in series [2], the “logP[a]” value is on record as 3.27.
The matching figures for `CCCSc1nn(-c2cc(SCC(F)(F)F)c(C)cc2F)c(=O)n1CC` [Example 426]: 4.29 and 4.37.
The like results for `Cc1cc(C)c([S+]([O-])CC(F)(F)F)cc1-n1nnn(C)c1=O` (racemic) [Example 297] were, in that order, 1.96 and 1.96.
As for `CCOc1nn(-c2ccc(C)c(SCC(F)(F)F)c2)c(=O)n1OC` [Example 227], the “logP[b]” value in series [1] was 3.70. Besides, the “logP[a]” value in series [2] stood at 3.76.
Turning to `CCn1c(OC)nn(-c2cc([S+]([O-])CC(F)(F)F)c(C)cc2F)c1=O` (centres unmarked) [Example 181], the “logP[b]” value in series [1] was found to be 2.07. Further, the “logP[a]” value in series [2] is 2.11.
Turning to `N#Cc1cc(F)c(-n2nc(C(F)(F)F)n(C3CC3)c2=O)cc1F` [XXIV-1, 4-[4-Cyclopropyl-5-oxo-3-(trifluoromethyl)-4,5-dihydro-1H-1,2,4-triazol-1-yl]-2,5-difluorobenzonitrile], the “log P[a]” value in series [2] (pH 2.7) came to 2.90. The chromatographic logP in series [2] (pH 2.7, log P[a]) was determined as 2.91.
Take `COc1nn(-c2ccc(Br)c(SCC(F)(F)F)c2)c(=O)n1C` [Example 168]: the “logP[b]” value in series [1] is given as 3.54. Besides, the “logP[a]” value in series [2] was found to be 3.60.
